Reference: ChEMBL document CHEMBL3872249, “Computer design, synthesis, and bioactivity analyses of drugs like fingolimod used in the treatment of multiple sclerosis” (Bioorg Med Chem, 2017)

Legend:
Assay type in all cases: functional
[1] = system: SH-SY5Y; assay: Effect on AGTR2 mRNA expression in human SH-SY5Y cells at EC10 by qPCR method relative to beta-actin
[2] = system: U-118-MG; assay: Effect on JUN mRNA expression in human U118MG cells at EC10 by qPCR method relative to beta-actin
[3] = system: SK-N-SH; assay: Effect on CYP19A1 mRNA expression in human SK-N-SH cells at EC10 by qPCR method relative to beta-actin
[4] = system: U-118-MG; assay: Effect on FGF2 mRNA expression in human U118MG cells at EC10 by qPCR method relative to beta-actin
[5] = system: U-118-MG; assay: Effect on EDNRA mRNA expression in human U118MG cells at EC10 by qPCR method relative to beta-actin
[6] = system: U-118-MG; assay: Effect on AGTR2 mRNA expression in human U118MG cells at EC10 by qPCR method relative to beta-actin
[7] = system: SH-SY5Y; assay: Effect on JUN mRNA expression in human SH-SY5Y cells at EC10 by qPCR method relative to beta-actin
[8] = system: SH-SY5Y; assay: Effect on IFNG mRNA expression in human SH-SY5Y cells at EC10 by qPCR method relative to beta-actin
[9] = system: SK-N-SH; assay: Effect on IL18 mRNA expression in human SK-N-SH cells at EC10 by qPCR method relative to beta-actin
[10] = system: SK-N-SH; assay: Effect on IFNG mRNA expression in human SK-N-SH cells at EC10 by qPCR method relative to beta-actin
[11] = system: SH-SY5Y; assay: Effect on MYC mRNA expression in human SH-SY5Y cells at EC10 by qPCR method relative to beta-actin
[12] = system: SK-N-SH; assay: Effect on VCAM1 mRNA expression in human SK-N-SH cells at EC10 by qPCR method relative to beta-actin
[13] = system: U-118-MG; assay: Effect on EPHA1 mRNA expression in human U118MG cells at EC10 by qPCR method relative to beta-actin
[14] = system: U-118-MG; assay: Effect on NOS2 mRNA expression in human U118MG cells at EC10 by qPCR method relative to beta-actin
[15] = system: U-118-MG; assay: Effect on MYC mRNA expression in human U118MG cells at EC10 by qPCR method relative to beta-actin
[16] = system: SK-N-SH; assay: Effect on FGF2 mRNA expression in human SK-N-SH cells at EC10 by qPCR method relative to beta-actin
[17] = system: SK-N-SH; assay: Effect on FASLG mRNA expression in human SK-N-SH cells at EC10 by qPCR method relative to beta-actin
[18] = system: U-118-MG; assay: Effect on PIK3CG mRNA expression in human U118MG cells at EC10 by qPCR method relative to beta-actin
[19] = system: SH-SY5Y; assay: Effect on BCL2 mRNA expression in human SH-SY5Y cells at EC10 by qPCR method relative to beta-actin
[20] = system: SH-SY5Y; assay: Effect on STAT3 mRNA expression in human SH-SY5Y cells at EC10 by qPCR method relative to beta-actin
[21] = system: U-118-MG; assay: Effect on BCL2 mRNA expression in human U118MG cells at EC10 by qPCR method relative to beta-actin
[22] = system: SH-SY5Y; assay: Effect on CFLAR mRNA expression in human SH-SY5Y cells at EC10 by qPCR method relative to beta-actin
[23] = system: SH-SY5Y; assay: Effect on AKT1 mRNA expression in human SH-SY5Y cells at EC10 by qPCR method relative to beta-actin
[24] = system: U-118-MG; assay: Effect on IFNG mRNA expression in human U118MG cells at EC10 by qPCR method relative to beta-actin
[25] = system: SK-N-SH; assay: Effect on S1PR3 mRNA expression in human SK-N-SH cells at EC10 by qPCR method relative to beta-actin
[26] = system: SH-SY5Y; assay: Effect on TSHR mRNA expression in human SH-SY5Y cells at EC10 by qPCR method relative to beta-actin
[27] = system: SK-N-SH; assay: Effect on BCL2 mRNA expression in human SK-N-SH cells at EC10 by qPCR method relative to beta-actin
[28] = system: U-118-MG; assay: Effect on CSF1 mRNA expression in human U118MG cells at EC10 by qPCR method relative to beta-actin
[29] = system: SH-SY5Y; assay: Effect on FGF2 mRNA expression in human SH-SY5Y cells at EC10 by qPCR method relative to beta-actin
[30] = system: SK-N-SH; assay: Effect on MMP9 mRNA expression in human SK-N-SH cells at EC10 by qPCR method relative to beta-actin
[31] = system: SK-N-SH; assay: Effect on FOXP3 mRNA expression in human SK-N-SH cells at EC10 by qPCR method relative to beta-actin
[32] = system: SK-N-SH; assay: Effect on CFLAR mRNA expression in human SK-N-SH cells at EC10 by qPCR method relative to beta-actin
[33] = system: SH-SY5Y; assay: Effect on VEGFA mRNA expression in human SH-SY5Y cells at EC10 by qPCR method relative to beta-actin
[34] = system: SK-N-SH; assay: Effect on MYC mRNA expression in human SK-N-SH cells at EC10 by qPCR method relative to beta-actin
[35] = system: SK-N-SH; assay: Effect on IL1B mRNA expression in human SK-N-SH cells at EC10 by qPCR method relative to beta-actin
[36] = system: SK-N-SH; assay: Effect on ADRB2 mRNA expression in human SK-N-SH cells at EC10 by qPCR method relative to beta-actin
[37] = system: U-118-MG; assay: Effect on CCL3 mRNA expression in human U118MG cells at EC10 by qPCR method relative to beta-actin
[38] = system: U-118-MG; assay: Effect on CCL2 mRNA expression in human U118MG cells at EC10 by qPCR method relative to beta-actin
[39] = system: SK-N-SH; assay: Effect on MAG mRNA expression in human SK-N-SH cells at EC10 by qPCR method relative to beta-actin
[40] = system: U-118-MG; assay: Effect on CXCL10 mRNA expression in human U118MG cells at EC10 by qPCR method relative to beta-actin
[41] = system: SH-SY5Y; assay: Effect on FOXP3 mRNA expression in human SH-SY5Y cells at EC10 by qPCR method relative to beta-actin
[42] = system: U-118-MG; assay: Effect on TGFB1 mRNA expression in human U118MG cells at EC10 by qPCR method relative to beta-actin
[43] = system: SK-N-SH; assay: Effect on CCL5 mRNA expression in human SK-N-SH cells at EC10 by qPCR method relative to beta-actin
[44] = system: U-118-MG; assay: Effect on SOD1 mRNA expression in human U118MG cells at EC10 by qPCR method relative to beta-actin

Compound: CCCCCCCCn1nnnc1CCC(N)(CO)CO.Cl
- fold change (FC) [1]: 8.9431
- fold change (FC) [2]: -5.0916
- fold change (FC) [3]: -5.5959
- fold change (FC) [4]: -4.6964
- fold change (FC) [5]: 4.4344
- fold change (FC) [6]: 4.8726
- fold change (FC) [7]: -4.7214
- fold change (FC) [8]: -2.7247
- fold change (FC) [9]: -5.1137
- fold change (FC) [10]: -3.6601
- fold change (FC) [11]: -5.0669
- fold change (FC) [12]: -5.4618
- fold change (FC) [13]: -4.2116
- fold change (FC) [14]: -4.0673
- fold change (FC) [15]: -4.1285
- fold change (FC) [16]: -6.7243
- fold change (FC) [17]: -2.9626
- fold change (FC) [18]: -4.5938
- fold change (FC) [19]: -4.8227
- fold change (FC) [20]: -2.8938
- fold change (FC) [21]: -4.6127
- fold change (FC) [22]: -3.1434
- fold change (FC) [23]: -4.1766
- fold change (FC) [24]: -4.5394
- fold change (FC) [25]: -4.0052
- fold change (FC) [26]: 4.7801
- fold change (FC) [27]: -7.8184
- fold change (FC) [28]: -4.2226
- fold change (FC) [29]: -3.8516
- fold change (FC) [30]: -5.1049
- fold change (FC) [31]: -3.4447
- fold change (FC) [32]: -3.3101
- fold change (FC) [33]: -6.1896
- fold change (FC) [34]: -4.315
- fold change (FC) [35]: -4.7796
- fold change (FC) [36]: -4.3526

Compound: CCCCCCCCc1ccc(CCC(N)(CO)CO)cc1 [FINGOLIMOD]
- fold change (FC) [1]: 3.2887
- fold change (FC) [2]: -3.0183
- fold change (FC) [3]: -7.2069
- fold change (FC) [4]: -4.2052
- fold change (FC) [5]: 3.242
- fold change (FC) [37]: -3.4017
- fold change (FC) [6]: 4.8347
- fold change (FC) [7]: -3.5677
- fold change (FC) [8]: -5.1964
- fold change (FC) [10]: -6.428
- fold change (FC) [38]: -5.2826
- fold change (FC) [11]: -4.508
- fold change (FC) [12]: -7.0341
- fold change (FC) [13]: -3.7679
- fold change (FC) [14]: -5.6458
- fold change (FC) [15]: -4.9203
- fold change (FC) [39]: 3.5508
- fold change (FC) [16]: -7.3456
- fold change (FC) [17]: -3.5415
- fold change (FC) [18]: -3.7491
- fold change (FC) [19]: -4.2945
- fold change (FC) [20]: -5.5022
- fold change (FC) [21]: -4.7035
- fold change (FC) [22]: -13.7609
- fold change (FC) [23]: -9.4316
- fold change (FC) [24]: -5.5428
- fold change (FC) [26]: -4.0629
- fold change (FC) [27]: -2.7547
- fold change (FC) [29]: -8.2392
- fold change (FC) [30]: -13.1489
- fold change (FC) [31]: -4.444
- fold change (FC) [40]: -8.4782
- fold change (FC) [41]: -5.5022
- fold change (FC) [32]: -11.0378
- fold change (FC) [33]: -4.3696
- fold change (FC) [34]: -8.3361
- fold change (FC) [35]: -5.3866
- fold change (FC) [36]: -6.7945

Compound: CCCCCCCCn1nnnc1-c1ccc(C(O)CC(N)(CO)CO)cc1.Cl (configuration not stated)
- fold change (FC) [37]: -3.7241
- fold change (FC) [38]: -5.2393
- fold change (FC) [39]: 3.9862
- fold change (FC) [42]: -5.1404
- fold change (FC) [25]: -4.5159
- fold change (FC) [40]: -4.8547
- fold change (FC) [43]: -4.1626
- fold change (FC) [44]: 5.2803
